One data set deals with GLP-1R (Homo sapiens, UniProt P43220). The experiment in a line: GLP-1R activation: cAMP increase in CHO cells stably expressing GLP-1R. The data set is classed as cell-based. The settings on record: cAMP increase, CHO cells stably expressing GLP-1R, 10 point dose response, 30 minutes incubation; read-out: EC50.
Data set [1] is described as follows: Microsomal stability, human liver microsomes (predicted hepatic clearance). To be noted: predicted from in vitro microsomal stability data.

The term EC50 denotes the concentration needed to bring the measured effect to its halfway point.

Chain of GLP-1R (P43220 24-463): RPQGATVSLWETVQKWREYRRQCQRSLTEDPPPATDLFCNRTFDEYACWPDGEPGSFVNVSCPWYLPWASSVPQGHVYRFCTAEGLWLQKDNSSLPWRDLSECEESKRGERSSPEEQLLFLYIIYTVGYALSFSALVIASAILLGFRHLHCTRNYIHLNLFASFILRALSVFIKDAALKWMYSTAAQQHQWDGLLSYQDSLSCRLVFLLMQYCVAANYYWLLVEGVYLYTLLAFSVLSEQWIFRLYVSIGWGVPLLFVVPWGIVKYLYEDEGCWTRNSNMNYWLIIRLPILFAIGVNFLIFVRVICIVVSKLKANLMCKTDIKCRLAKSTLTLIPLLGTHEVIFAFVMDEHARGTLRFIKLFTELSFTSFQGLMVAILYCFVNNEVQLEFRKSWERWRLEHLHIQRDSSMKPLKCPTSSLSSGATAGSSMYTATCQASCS

With `COCCn1c(Cc2ccc(-c3ccc(C)c(OCc4ccc(C#N)cc4F)n3)cc2)nc2ccc(C(=O)O)cc21` (single isomer, unassigned) [Example 24, 2-(4-(6-((4-cyano-2-fluorobenzyl)oxy)-5-methylpyridin-2-yl)benzyl)-1-(2-methoxyethyl)-1H-benzo[d]imidazole-6-carboxylic acid], at GLP-1R, the EC50 was 1.72 µM. The “Predicted Hepatic Clearance (Pred. Cl.)” value in data set [1] is given as 0.13 L/h/kg.

For `COCCn1c(C2CCc3cc(-c4cccc(OCc5ccc(C#N)cc5F)n4)ccc32)nc2ccc(C(=O)O)cc21` (single isomer, unassigned) [Example 46, 2-(5-(6-((4-cyano-2-fluorobenzyl)oxy)pyridin-2-yl)-2,3-dihydro-1H-inden-1-yl)-1-(2-methoxyethyl)-1H-benzo[d]imidazole-6-carboxylic acid], the EC50 on GLP-1R amounted to 0.0624 µM. For the same compound, in data set [1], the “Predicted Hepatic Clearance (Pred. Cl.)” value was 0.3 L/h/kg.

On to `COCCn1c(C2CCc3cc(-c4cccc(OCc5ccc(C#N)cc5F)n4)ccc32)nc2ccc(C(=O)O)cc21` (single isomer, unassigned) [Example 47, 2-(5-(6-((4-cyano-2-fluorobenzyl)oxy)pyridin-2-yl)-2,3-dihydro-1H-inden-1-yl)-1-(2-methoxyethyl)-1H-benzo[d]imidazole-6-carboxylic acid], for which the EC50 at GLP-1R is 1.44 µM. The “Predicted Hepatic Clearance (Pred. Cl.)” value in data set [1] was 0.28 L/h/kg.

Take `COCCn1c(C2OCCc3cc(-c4cccc(OCc5ccc(C#N)cc5F)n4)ccc32)nc2ccc(C(=O)O)cc21` (single isomer, unassigned) [Example 48, 2-(6-(6-((4-cyano-2-fluorobenzyl)oxy)pyridin-2-yl)isochroman-1-yl)-1-(2-methoxyethyl)-1H-benzo[d]imidazole-6-carboxylic acid]: the EC50 at GLP-1R amounted to 0.575 µM. Besides, in data set [1], the “Predicted Hepatic Clearance (Pred. Cl.)” value is reported as 0.22 L/h/kg.

Regarding `COCCn1c(C2OCCc3cc(-c4cccc(OCc5ccc(C#N)cc5F)n4)ccc32)nc2ccc(C(=O)O)cc21` (single isomer, unassigned) [Example 49, 2-(6-(6-((4-cyano-2-fluorobenzyl)oxy)pyridin-2-yl)isochroman-1-yl)-1-(2-methoxyethyl)-1H-benzo[d]imidazole-6-carboxylic acid], the EC50 on GLP-1R is greater than 1 µM. In addition, the “Predicted Hepatic Clearance (Pred. Cl.)” value in data set [1] is 0.78 L/h/kg.

As to `N#Cc1ccc(COc2cccc(-c3ccc(Cc4nc5ccc(C(=O)O)cc5n4CC4CCS4(=O)=O)c(F)c3)n2)c(F)c1` (single isomer, unassigned) [Example 69, 2-(4-(6-((4-cyano-2-fluorobenzyl)oxy)pyridin-2-yl)-2-fluorobenzyl)-1-((1,1-dioxidothietan-2-yl)methyl)-1H-benzo[d]imidazole-6-carboxylic acid], the EC50 on GLP-1R was found to be 0.012 µM. Also, the “Predicted Hepatic Clearance (Pred. Cl.)” value in data set [1] is less than 0.11 L/h/kg.

Take `N#Cc1ccc(COc2cccc(-c3ccc(Cc4nc5ccc(C(=O)O)cc5n4CC4CCS4(=O)=O)c(F)c3)n2)c(F)c1` (single isomer, unassigned) [Example 70, 2-(4-(6-((4-cyano-2-fluorobenzyl)oxy)pyridin-2-yl)-2-fluorobenzyl)-1-((1,1-dioxidothietan-2-yl)methyl)-1H-benzo[d]imidazole-6-carboxylic acid]: the EC50 on GLP-1R is 0.064 µM. In data set [1], the “Predicted Hepatic Clearance (Pred. Cl.)” value is 0.13 L/h/kg.

Turning to `COCCNC(=O)C(Cn1c(Cc2ccc(-c3cccc(OCc4ccc(C#N)cc4F)n3)cc2F)nc2ccc(C(=O)O)cc21)OC` (single isomer, unassigned) [Example 328, 2-(4-(6-((4-cyano-2-fluorobenzyl)oxy)pyridin-2-yl)-2-fluorobenzyl)-1-(2-methoxy-3-((2-methoxyethyl)amino)-3-oxopropyl)-1H-benzo[d]imidazole-6-carboxylic acid], the EC50 at GLP-1R was 0.0265 µM. For the same compound, the “Predicted Hepatic Clearance (Pred. Cl.)” value in data set [1] is given as 0.66 L/h/kg.

As to `COC(Cn1c(Cc2ccc(-c3cccc(OCc4ccc(C#N)cc4F)n3)cc2F)nc2ccc(C(=O)O)cc21)C(=O)Nc1nccs1` (single isomer, unassigned) [Example 329, 2-(4-(6-((4-cyano-2-fluorobenzyl)oxy)pyridin-2-yl)-2-fluorobenzyl)-1-(2-methoxy-3-oxo-3-(thiazol-2-ylamino)propyl)-1H-benzo[d]imidazole-6-carboxylic acid], the EC50 on GLP-1R turned out to be 0.286 µM. In data set [1], the “Predicted Hepatic Clearance (Pred. Cl.)” value is listed as 0.47 L/h/kg.

As to `CNC(=O)C(Cn1c(Cc2ccc(-c3cccc(OCc4ccc(C#N)cc4F)n3)cc2F)nc2ccc(C(=O)O)cc21)OC` (single isomer, unassigned) [Example 330, 2-(4-(6-((4-cyano-2-fluorobenzyl)oxy)pyridin-2-yl)-2-fluorobenzyl)-1-(2-methoxy-3-(methylamino)-3-oxopropyl)-1H-benzo[d]imidazole-6-carboxylic acid], the EC50 on GLP-1R was determined as 0.0172 µM. Further, the “Predicted Hepatic Clearance (Pred. Cl.)” value in data set [1] is 0.19 L/h/kg.

As for `COC(Cn1c(Cc2ccc(-c3cccc(OCc4ccc(C#N)cc4F)n3)cc2F)nc2ccc(C(=O)O)cc21)C(=O)O` (single isomer, unassigned) [Example 332, 1-(2-carboxy-2-methoxyethyl)-2-(4-(6-((4-cyano-2-fluorobenzyl)oxy)pyridin-2-yl)-2-fluorobenzyl)-1H-benzo[d]imidazole-6-carboxylic acid], the EC50 on GLP-1R turned out to be 0.12 µM. Also, the “Predicted Hepatic Clearance (Pred. Cl.)” value in data set [1] is recorded as less than 0.11 L/h/kg.

For `COC(Cn1c(Cc2ccc(-c3cccc(OCc4ccc(C#N)cc4F)n3)cc2F)nc2ccc(C(=O)O)cc21)C(=O)O` (single isomer, unassigned) [Example 333, 1-(2-carboxy-2-methoxyethyl)-2-(4-(6-((4-cyano-2-fluorobenzyl)oxy)pyridin-2-yl)-2-fluorobenzyl)-1H-benzo[d]imidazole-6-carboxylic acid], at GLP-1R, the EC50 turned out to be 0.624 µM. The “Predicted Hepatic Clearance (Pred. Cl.)” value in data set [1] is reported as less than 0.11 L/h/kg.

Consider `COC(Cn1c(Cc2ccc(-c3cccc(OCc4ccc(C#N)cc4F)n3)cc2F)nc2ccc(C(=O)O)cc21)C(N)=O` (single isomer, unassigned) [Example 334, 1-(3-amino-2-methoxy-3-oxopropyl)-2-(4-(6-((4-cyano-2-fluorobenzyl)oxy)pyridin-2-yl)-2-fluorobenzyl)-1H-benzo[d]imidazole-6-carboxylic acid], for which the EC50 on GLP-1R worked out at 0.00711 µM. Further, the “Predicted Hepatic Clearance (Pred. Cl.)” value in data set [1] is 0.2 L/h/kg.

With `COCCNC(=O)C(Cn1c(Cc2ccc(-c3cccc(OCc4ccc(C#N)cc4F)n3)cc2F)nc2ccc(C(=O)O)cc21)OC` (single isomer, unassigned) [Example 335, 2-(4-(6-((4-cyano-2-fluorobenzyl)oxy)pyridin-2-yl)-2-fluorobenzyl)-1-(2-methoxy-3-((2-methoxyethyl)amino)-3-oxopropyl)-1H-benzo[d]imidazole-6-carboxylic acid], the EC50 at GLP-1R was 0.139 µM. In addition, the “Predicted Hepatic Clearance (Pred. Cl.)” value in data set [1] is on record as 0.29 L/h/kg.

Consider `CNC(=O)C(Cn1c(Cc2ccc(-c3cccc(OCc4ccc(C#N)cc4F)n3)cc2F)nc2ccc(C(=O)O)cc21)OC` (single isomer, unassigned) [Example 336, 2-(4-(6-((4-cyano-2-fluorobenzyl)oxy)pyridin-2-yl)-2-fluorobenzyl)-1-(2-methoxy-3-(methylamino)-3-oxopropyl)-1H-benzo[d]imidazole-6-carboxylic acid], for which, on GLP-1R, the EC50 was determined as 0.0049 µM. Besides, the “Predicted Hepatic Clearance (Pred. Cl.)” value in data set [1] is reported as 0.42 L/h/kg.

Regarding `CNC(=O)C(Cn1c(Cc2ccc(-c3cccc(OCc4ccc(C#N)cc4F)n3)cc2F)nc2ccc(C(=O)O)cc21)OC` (single isomer, unassigned) [Example 337, 2-(4-(6-((4-cyano-2-fluorobenzyl)oxy)pyridin-2-yl)-2-fluorobenzyl)-1-(2-methoxy-3-(methylamino)-3-oxopropyl)-1H-benzo[d]imidazole-6-carboxylic acid], the EC50 at GLP-1R was 0.0137 µM. The “Predicted Hepatic Clearance (Pred. Cl.)” value in data set [1] is recorded as 0.29 L/h/kg.

As for `COC(Cn1c(Cc2ccc(-c3cccc(OCc4ccc(C#N)cc4F)n3)cc2F)nc2ccc(C(=O)O)cc21)C(=O)Nc1nccs1` (single isomer, unassigned) [Example 338, 2-(4-(6-((4-cyano-2-fluorobenzyl)oxy)pyridin-2-yl)-2-fluorobenzyl)-1-(2-methoxy-3-oxo-3-(thiazol-2-ylamino)propyl)-1H-benzo[d]imidazole-6-carboxylic acid], at GLP-1R, the EC50 was determined as 2.51 µM. The “Predicted Hepatic Clearance (Pred. Cl.)” value in data set [1] is listed as 0.78 L/h/kg.

In the case of `COC(CN)Cn1c(Cc2ccc(-c3cccc(OCc4ccc(C#N)cc4F)n3)cc2F)nc2ccc(C(=O)O)cc21` (single isomer, unassigned) [Example 339, 1-(3-amino-2-methoxypropyl)-2-(4-(6-((4-cyano-2-fluorobenzyl)oxy)pyridin-2-yl)-2-fluorobenzyl)-1H-benzo[d]imidazole-6-carboxylic acid], the EC50 at GLP-1R amounted to 0.566 µM. Besides, the “Predicted Hepatic Clearance (Pred. Cl.)” value in data set [1] is given as less than 0.11 L/h/kg.

In the case of `COC(CN)Cn1c(Cc2ccc(-c3cccc(OCc4ccc(C#N)cc4F)n3)cc2F)nc2ccc(C(=O)O)cc21` (single isomer, unassigned) [Example 340, 1-(3-amino-2-methoxypropyl)-2-(4-(6-((4-cyano-2-fluorobenzyl)oxy)pyridin-2-yl)-2-fluorobenzyl)-1H-benzo[d]imidazole-6-carboxylic acid], the EC50 on GLP-1R was 0.0441 µM. Also, the “Predicted Hepatic Clearance (Pred. Cl.)” value in data set [1] was less than 0.11 L/h/kg.

For the compound `COC(CNC(C)=O)Cn1c(Cc2ccc(-c3cccc(OCc4ccc(C#N)cc4F)n3)cc2F)nc2ccc(C(=O)O)cc21` (single isomer, unassigned) [Example 341, 1-(3-acetamido-2-methoxypropyl)-2-(4-(6-((4-cyano-2-fluorobenzyl)oxy)pyridin-2-yl)-2-fluorobenzyl)-1H-benzo[d]imidazole-6-carboxylic acid], at GLP-1R, the concentration giving a half-maximal response (EC50) was 0.0197 µM. Also, the “Predicted Hepatic Clearance (Pred. Cl.)” value in data set [1] is 0.34 L/h/kg.

(Values after patent publication US11702404B2, “GLP-1R modulating compounds” (priority 2019, dated 2023).)
